Test results as given in ChEMBL document CHEMBL4428082, “Aligning Potency and Pharmacokinetic Properties for Pyridine-Based NCINIs” (ACS Med Chem Lett, 2016).
Converted amounts (≈) assume the structure as drawn.

Key:
[1] = Inhibition of HIV NL4.3 integrase T124/T125 double mutant assessed as reduction in viral replication by luciferase reporter gene assay; design: species or system Human immunodeficiency virus
[2] = test system: Human immunodeficiency virus; experiment: Ratio of EC50 for HIV1 NL4.3 integrase N124/T125 double mutant in presence of human serum to EC50 for HIV1 NL4.3 integrase N124/T125 double mutant in absence of human serum
[3] = Half life in human liver microsomes; assay type: ADME, Microsome
[4] = Inhibition of HIV NL4.3 integrase N124/T125 double mutant assessed as reduction in viral replication by luciferase reporter gene assay; design: species or system Human immunodeficiency virus
[5] = Half life in bile duct cannulated rat; assay type: ADME; conditions: in vivo
[6] = Half life in rat; assay type: ADME; conditions: in vivo
[7] = Apparent permeability in human Caco2 cells; assay type: ADME, cell-based; conditions: Caco-2
[8] = Solubility of the compound at pH 6.8; assay type: physicochemical; conditions: buffer
[9] = Clearance in human hepatocytes relative to hepatic blood flow; assay type: ADME, cell-based, Hepatocyte; conditions: read-out: CLH
[10] = Clearance in rat hepatocytes relative to hepatic blood flow; assay type: ADME, cell-based, Hepatocyte; conditions: read-out: CLH
[11] = Clearance in iv dosed rat relative to hepatic blood flow; assay type: ADME, organism-based; conditions: in vivo
[12] = Volume of distribution at steady state in rat; assay type: ADME; conditions: in vivo, read-out: Vdss
[13] = Total drug excretion in rat bile assessed as acyl glucuronide of parent compound at 3 hrs; assay type: ADME, tissue-based; conditions: in vivo
[14] = Inhibition of HIV NL4.3 integrase T124/T125 double mutant infected in PBMC assessed as reduction in viral replication by p24 ELISA; conditions: Human immunodeficiency virus 1, NL4.3
[15] = Inhibition of HIV NL4.3 integrase T124/A125 double mutant infected in PBMC assessed as reduction in viral replication by p24 ELISA; conditions: Human immunodeficiency virus 1, NL4.3
[16] = Inhibition of HIV NL4.3 integrase A124/T125 double mutant infected in PBMC assessed as reduction in viral replication by p24 ELISA; conditions: Human immunodeficiency virus 1, NL4.3
[17] = Inhibition of HIV NL4.3 integrase A124/A125 double mutant infected in PBMC assessed as reduction in viral replication by p24 ELISA; conditions: Human immunodeficiency virus 1, NL4.3
[18] = Inhibition of HIV NL4.3 integrase N124/T125 double mutant infected in PBMC assessed as reduction in viral replication by p24 ELISA; conditions: Human immunodeficiency virus 1, NL4.3
[19] = Inhibition of HIV NL4.3 integrase N124/A125 double mutant infected in PBMC assessed as reduction in viral replication by p24 ELISA; conditions: Human immunodeficiency virus 1, NL4.3
Cytochrome P450 3A4 = Cytochrome P450 3A4 (Homo sapiens, UniProt P08684); experiment: Inhibition of CYP3A4 (unknown origin); assay type: ADME
Cytochrome P450 2D6 = Cytochrome P450 2D6 (Homo sapiens, UniProt P10635); experiment: Inhibition of CYP2D6 (unknown origin); assay type: ADME
Cytochrome P450 1A2 = target: T1, Cytochrome P450 1A2 (Homo sapiens, UniProt P05177); experiment: Inhibition of CYP1A2 (unknown origin); assay type: ADME
T1 sequence (P05177 whole entry): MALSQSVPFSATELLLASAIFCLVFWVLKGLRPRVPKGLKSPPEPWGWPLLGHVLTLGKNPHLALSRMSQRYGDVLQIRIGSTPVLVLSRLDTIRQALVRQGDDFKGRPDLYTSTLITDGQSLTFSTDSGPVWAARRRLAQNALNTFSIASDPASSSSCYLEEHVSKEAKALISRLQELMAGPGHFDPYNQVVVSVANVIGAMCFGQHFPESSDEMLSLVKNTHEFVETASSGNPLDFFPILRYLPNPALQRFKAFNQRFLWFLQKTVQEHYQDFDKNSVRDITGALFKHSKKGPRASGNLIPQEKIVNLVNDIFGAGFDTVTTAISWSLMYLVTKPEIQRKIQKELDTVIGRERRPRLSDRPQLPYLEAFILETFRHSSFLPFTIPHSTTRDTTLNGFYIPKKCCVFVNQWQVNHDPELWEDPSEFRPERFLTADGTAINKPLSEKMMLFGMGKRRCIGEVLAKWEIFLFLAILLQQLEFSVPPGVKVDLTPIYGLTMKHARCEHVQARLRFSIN

Cytochrome P450 2C19 = Cytochrome P450 2C19 (Homo sapiens, UniProt P33261); experiment: Inhibition of CYP2C19 (unknown origin); assay type: ADME
Cytochrome P450 2C9 = Cytochrome P450 2C9 (Homo sapiens, UniProt P11712); experiment: Inhibition of CYP2C9 (unknown origin); assay type: ADME
[20] = Clearance in dog hepatocytes relative to hepatic blood flow; assay type: ADME, cell-based, Canis lupus familiaris, Hepatocyte; conditions: read-out: CLH
[21] = Clearance in monkey hepatocytes relative to hepatic blood flow; assay type: ADME, cell-based, Macaca mulatta, Hepatocyte; conditions: rhesus monkey, read-out: CLH
[22] = Clearance in iv dosed dog relative to hepatic blood flow; assay type: ADME, organism-based, Canis lupus familiaris; conditions: in vivo
[23] = Clearance in iv dosed monkey relative to hepatic blood flow; assay type: ADME, organism-based, Macaca mulatta; conditions: rhesus monkey, in vivo
[24] = Clearance in rat relative to hepatic blood flow; assay type: ADME; conditions: in vivo

Cytochrome P450 2D6, sequence (P10635 whole entry): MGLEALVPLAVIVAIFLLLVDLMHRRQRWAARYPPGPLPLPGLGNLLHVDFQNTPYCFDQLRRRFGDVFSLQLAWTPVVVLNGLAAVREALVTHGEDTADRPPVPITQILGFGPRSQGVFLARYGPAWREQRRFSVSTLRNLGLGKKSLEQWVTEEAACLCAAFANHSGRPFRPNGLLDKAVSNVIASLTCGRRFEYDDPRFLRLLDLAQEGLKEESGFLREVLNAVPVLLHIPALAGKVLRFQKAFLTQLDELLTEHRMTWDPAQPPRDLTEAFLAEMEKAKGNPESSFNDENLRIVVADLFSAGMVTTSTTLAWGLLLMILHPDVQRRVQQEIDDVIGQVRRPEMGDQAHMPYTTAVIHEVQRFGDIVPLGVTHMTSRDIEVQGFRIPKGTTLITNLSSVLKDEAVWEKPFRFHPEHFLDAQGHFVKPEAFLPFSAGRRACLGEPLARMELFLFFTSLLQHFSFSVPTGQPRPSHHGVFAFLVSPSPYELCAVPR
Cytochrome P450 2C9, sequence (P11712 whole entry): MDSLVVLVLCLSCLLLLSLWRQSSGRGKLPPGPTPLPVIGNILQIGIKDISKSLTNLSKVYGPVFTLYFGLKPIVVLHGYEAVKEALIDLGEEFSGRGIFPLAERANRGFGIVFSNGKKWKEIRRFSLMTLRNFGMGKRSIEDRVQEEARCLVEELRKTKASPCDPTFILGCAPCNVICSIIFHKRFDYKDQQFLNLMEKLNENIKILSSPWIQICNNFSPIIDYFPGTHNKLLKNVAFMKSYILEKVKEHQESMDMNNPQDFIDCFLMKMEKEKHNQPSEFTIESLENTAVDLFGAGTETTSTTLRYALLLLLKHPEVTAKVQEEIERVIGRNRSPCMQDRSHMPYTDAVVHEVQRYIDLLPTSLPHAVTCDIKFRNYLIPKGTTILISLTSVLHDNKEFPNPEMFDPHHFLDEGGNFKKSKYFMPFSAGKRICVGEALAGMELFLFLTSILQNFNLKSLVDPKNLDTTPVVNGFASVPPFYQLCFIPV
Cytochrome P450 2C19, sequence (P33261 whole entry): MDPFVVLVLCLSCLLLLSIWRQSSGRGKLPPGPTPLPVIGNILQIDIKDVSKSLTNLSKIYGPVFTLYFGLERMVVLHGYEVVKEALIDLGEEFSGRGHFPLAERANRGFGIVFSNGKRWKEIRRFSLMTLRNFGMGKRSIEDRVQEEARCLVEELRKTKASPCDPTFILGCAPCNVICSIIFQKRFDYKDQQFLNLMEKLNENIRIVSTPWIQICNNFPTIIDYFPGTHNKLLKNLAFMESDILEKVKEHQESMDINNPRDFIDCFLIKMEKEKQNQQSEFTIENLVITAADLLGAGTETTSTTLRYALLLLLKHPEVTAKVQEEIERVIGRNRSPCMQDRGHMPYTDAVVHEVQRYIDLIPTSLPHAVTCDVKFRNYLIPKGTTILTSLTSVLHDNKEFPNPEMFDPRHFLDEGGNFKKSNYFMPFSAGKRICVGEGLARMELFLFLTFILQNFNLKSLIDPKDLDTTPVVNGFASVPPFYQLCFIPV
Cytochrome P450 3A4, sequence (P08684 whole entry): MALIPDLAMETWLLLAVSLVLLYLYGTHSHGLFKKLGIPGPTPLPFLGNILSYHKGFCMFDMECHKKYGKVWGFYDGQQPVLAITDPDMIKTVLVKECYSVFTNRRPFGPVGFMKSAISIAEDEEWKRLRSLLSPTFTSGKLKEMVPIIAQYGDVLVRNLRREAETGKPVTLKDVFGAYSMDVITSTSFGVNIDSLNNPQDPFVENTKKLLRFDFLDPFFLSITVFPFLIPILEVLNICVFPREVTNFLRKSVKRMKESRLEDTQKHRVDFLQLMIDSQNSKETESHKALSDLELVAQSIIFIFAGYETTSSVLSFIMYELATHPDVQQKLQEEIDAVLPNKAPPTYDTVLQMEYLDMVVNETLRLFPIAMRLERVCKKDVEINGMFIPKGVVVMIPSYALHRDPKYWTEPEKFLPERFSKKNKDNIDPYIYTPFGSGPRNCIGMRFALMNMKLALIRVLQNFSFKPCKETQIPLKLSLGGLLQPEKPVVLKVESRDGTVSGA

Cc1nc(-c2nc3cccc(C)c3n2C)c(C)c(-c2ccc(Cl)cc2)c1[C@H](OC(C)(C)C)C(=O)O
EC50 [1]: 3 nM | Ratio EC50 [2]: 3.2 | half-life [3]: 2 h

Cc1ccc2nc(-c3nc(C)c([C@H](OC(C)(C)C)C(=O)O)c(-c4ccc5c(c4C)N(C)CCO5)c3C)n(C)c2c1
EC50 [1]: 3 nM | EC50 [4]: 91 nM | Ratio EC50 [2]: 3.9 | half-life [3]: 1.58 h

Cc1nc(-c2nc3ccc(F)cc3n2C)c(C)c(-c2ccc3c(c2C)N(C)CCO3)c1[C@H](OC(C)(C)C)C(=O)O
EC50 [1]: 3 nM | EC50 [4]: 120 nM | Ratio EC50 [2]: 1.4 | half-life [3]: 1.58 h

Cc1nc(C(=O)N[C@H]2CC[C@H](O)CC2)c(C)c(-c2ccc(Cl)cc2)c1[C@H](OC(C)(C)C)C(=O)O
EC50 [1]: 930 nM | half-life [3]: > 5 h

Cc1nc(C(=O)N[C@H]2CC[C@H](C)CC2)c(C)c(-c2ccc3c(c2C)N(C)CCO3)c1[C@H](OC(C)(C)C)C(=O)O
EC50 [1]: 2.5 nM | EC50 [4]: 170 nM | half-life [5]: 1.3 h | Ratio EC50 [2]: 2.9 | half-life [3]: > 5 h | half-life [6]: 1.3 h | Papp [7]: 39.8 ×10⁻⁶ cm/s | solubility [8]: 930 µg/mL (≈ 1730 µM) | hepatic extraction ratio [9]: 0.17 | hepatic extraction ratio [10]: 0.07 | CL [11]: 23% | Vd [12]: 1.4 L/kg | Drug excretion [13]: 20% | EC50 [14]: 0.5 nM | EC50 [15]: 0.4 nM | EC50 [16]: 0.6 nM | EC50 [17]: 0.9 nM | EC50 [18]: 27 nM | EC50 [19]: 42 nM | IC50 (Cytochrome P450 3A4): > 30000 nM | IC50 (Cytochrome P450 2D6): > 30000 nM | IC50 (Cytochrome P450 1A2): > 30000 nM | IC50 (Cytochrome P450 2C19): > 30000 nM | IC50 (Cytochrome P450 2C9): > 30000 nM | hepatic extraction ratio [20]: 0.31 | hepatic extraction ratio [21]: 0.31 | CL [22]: 10% | CL [23]: 30%

Cc1nc(C(=O)N[C@H]2CC[C@H](C)CC2)c(C)c(-c2ccc3c(c2C)NCCO3)c1[C@H](OC(C)(C)C)C(=O)O
EC50 [1]: 7.5 nM | EC50 [4]: 130 nM | Ratio EC50 [2]: 3 | half-life [3]: 3.12 h

Cc1nc(C(=O)Nc2ccccc2)c(C)c(-c2ccc(Cl)cc2)c1[C@H](OC(C)(C)C)C(=O)O
EC50 [1]: 12 nM | EC50 [4]: 670 nM

Cc1nc(C(=O)NCc2ccccc2)c(C)c(-c2ccc3c(c2)CCCO3)c1[C@H](OC(C)(C)C)C(=O)O
EC50 [1]: 14 nM | EC50 [4]: 200 nM | Ratio EC50 [2]: 23

Cc1nc(NC(=O)c2ccccc2OC(F)(F)F)c(C)c(-c2ccc3c(c2C)N(C)CCO3)c1[C@H](OC(C)(C)C)C(=O)O
EC50 [1]: 4.7 nM | Ratio EC50 [2]: 2.6 | half-life [3]: > 5 h

Cc1noc(C)c1-c1ccc(-c2nc(C)c([C@H](OC(C)(C)C)C(=O)O)c(-c3ccc(Cl)cc3)c2C)cc1
EC50 [1]: 7.7 nM | EC50 [4]: 810 nM | CL [24]: 0.6%

Cc1nc(C(=O)N[C@H]2CC[C@H](C)CC2)c(C)c(-c2ccc3c(c2)CCCO3)c1[C@H](OC(C)(C)C)C(=O)O
EC50 [1]: 4.2 nM | EC50 [4]: 220 nM | Ratio EC50 [2]: 4.1 | half-life [3]: 0.817 h

Cc1nc(C(=O)NC2CCN(C)CC2)c(C)c(-c2ccc(Cl)cc2)c1[C@H](OC(C)(C)C)C(=O)O
EC50 [1]: 2200 nM
